Assay results from PubChem BioAssay (NCI).
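Compound exposure: 48 hours, 5 concentrations, 96-well plates. The concentration for full growth arrest is given as TGI.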

Tests used:
Test in all cases: DTP human tumour cell line panel, 48 h
HCT-15 colon = test system: HCT-15 colon
OVCAR-4 ovarian = test system: OVCAR-4 ovarian
EKVX NSCLC = test system: EKVX NSCLC
KM20L2 colon = test system: KM20L2 colon
K-562 leukemia = test system: K-562 leukemia
M19-MEL melanoma = test system: M19-MEL melanoma
HOP-62 NSCLC = test system: HOP-62 NSCLC
SF-295 CNS = test system: SF-295 CNS
SF-539 CNS = test system: SF-539 CNS
ACHN renal = test system: ACHN renal
HT29 colon = test system: HT29 colon
CAKI-1 renal = test system: CAKI-1 renal
UACC-257 melanoma = test system: UACC-257 melanoma
HL-60(TB) leukemia = test system: HL-60(TB) leukemia
IGROV1 ovarian = test system: IGROV1 ovarian
LOX IMVI melanoma = test system: LOX IMVI melanoma
NCI-H23 lung = test system: NCI-H23 lung
CCRF-CEM leukemia = test system: CCRF-CEM leukemia
SNB-78 CNS = test system: SNB-78 CNS
SNB-19 CNS = test system: SNB-19 CNS
786-0 renal = test system: 786-0 renal
DMS 273 small cell lung = test system: DMS 273 small cell lung
RXF-631 renal = test system: RXF-631 renal
OVCAR-5 ovarian = test system: OVCAR-5 ovarian
NCI-H522 lung = test system: NCI-H522 lung
U251 CNS = test system: U251 CNS
A498 renal = test system: A498 renal
SK-MEL-28 melanoma = test system: SK-MEL-28 melanoma
MOLT-4 leukemia = test system: MOLT-4 leukemia
RPMI-8226 leukemia = test system: RPMI-8226 leukemia
OVCAR-8 ovarian = test system: OVCAR-8 ovarian
HOP-18 NSCLC = test system: HOP-18 NSCLC
SK-MEL-5 melanoma = test system: SK-MEL-5 melanoma
SF-268 CNS = test system: SF-268 CNS
NCI-H226 lung = test system: NCI-H226 lung
SW-620 colon = test system: SW-620 colon
M14 melanoma = test system: M14 melanoma
KM12 colon = test system: KM12 colon
SK-OV-3 ovarian = test system: SK-OV-3 ovarian
DLD-1 colon = test system: DLD-1 colon
LXFL 529 NSCLC = test system: LXFL 529 NSCLC
NCI-H460 lung = test system: NCI-H460 lung
DMS 114 small cell lung = test system: DMS 114 small cell lung
HCC-2998 colon = test system: HCC-2998 colon
MALME-3M melanoma = test system: MALME-3M melanoma
TK-10 renal = test system: TK-10 renal
SN12C renal = test system: SN12C renal
OVCAR-3 ovarian = test system: OVCAR-3 ovarian
UACC-62 melanoma = test system: UACC-62 melanoma
HOP-92 NSCLC = test system: HOP-92 NSCLC
SNB-75 CNS = test system: SNB-75 CNS
COLO 205 colon = test system: COLO 205 colon
XF 498 CNS = test system: XF 498 CNS
UO-31 renal = test system: UO-31 renal
SK-MEL-2 melanoma = test system: SK-MEL-2 melanoma
A549 NSCLC = test system: A549 NSCLC
RXF 393 renal = test system: RXF 393 renal
SR leukemia = test system: SR leukemia
HCT-116 colon = test system: HCT-116 colon

Which results are given for `C[C@]12CCc3nonc3C1CC[C@@H]1C2CC[C@]2(C)C(=O)CCC12` (stereo partly drawn)?
TGI (HCT-15 colon): > 100 µM; TGI (OVCAR-4 ovarian): > 100 µM; TGI (EKVX NSCLC): 69.4 µM; TGI (KM20L2 colon): 82.4 µM; TGI (K-562 leukemia): > 100 µM; TGI (M19-MEL melanoma): 57.2 µM; TGI (HOP-62 NSCLC): > 100 µM; TGI (SF-295 CNS): 83.9 µM; TGI (SF-539 CNS): 49.8 µM; TGI (ACHN renal): > 100 µM; TGI (HT29 colon): 37.9 µM; TGI (CAKI-1 renal): 49.2 µM; TGI (UACC-257 melanoma): > 10 µM; TGI (HL-60(TB) leukemia): 39.2 µM; TGI (IGROV1 ovarian): > 100 µM; TGI (LOX IMVI melanoma): 47.6 µM; TGI (NCI-H23 lung): > 100 µM; TGI (CCRF-CEM leukemia): 57.8 µM; TGI (SNB-78 CNS): > 100 µM; TGI (SNB-19 CNS): > 100 µM; TGI (786-0 renal): > 100 µM; TGI (DMS 273 small cell lung): 51.1 µM; TGI (RXF-631 renal): > 100 µM; TGI (OVCAR-5 ovarian): > 100 µM; TGI (NCI-H522 lung): 72.2 µM; TGI (U251 CNS): > 100 µM; TGI (A498 renal): 78.8 µM; TGI (SK-MEL-28 melanoma): > 10 µM; TGI (MOLT-4 leukemia): 61.6 µM; TGI (RPMI-8226 leukemia): 46.5 µM; TGI (OVCAR-8 ovarian): > 100 µM; TGI (HOP-18 NSCLC): > 100 µM; TGI (SK-MEL-5 melanoma): 34.2 µM; TGI (SF-268 CNS): > 100 µM; TGI (NCI-H226 lung): > 100 µM; TGI (SW-620 colon): > 100 µM; TGI (M14 melanoma): > 100 µM; TGI (KM12 colon): 37.4 µM; TGI (SK-OV-3 ovarian): > 100 µM; TGI (DLD-1 colon): > 100 µM; TGI (LXFL 529 NSCLC): > 100 µM; TGI (NCI-H460 lung): > 100 µM; TGI (DMS 114 small cell lung): 60 µM; TGI (HCC-2998 colon): 71.2 µM; TGI (MALME-3M melanoma): 65.7 µM; TGI (TK-10 renal): > 10 µM; TGI (SN12C renal): > 100 µM; TGI (OVCAR-3 ovarian): 58.7 µM; TGI (UACC-62 melanoma): 68.3 µM; TGI (HOP-92 NSCLC): 55.3 µM; TGI (SNB-75 CNS): 94.5 µM; TGI (COLO 205 colon): 56.3 µM; TGI (XF 498 CNS): 45 µM; TGI (UO-31 renal): 68.2 µM; TGI (SK-MEL-2 melanoma): 46.8 µM; TGI (A549 NSCLC): 82.5 µM; TGI (RXF 393 renal): > 100 µM

With `COc1c(CC(=O)c2ccccc2)c2ccccc2n1C(C)=O` as the compound, how does the TGI (HCT-15 colon) read?
Its TGI is > 100 µM.

What about the TGI (OVCAR-4 ovarian) of the same compound?
Its TGI is > 100 µM.

What about the TGI (EKVX NSCLC) of the same compound?
Its TGI is > 100 µM.

And the TGI (SR leukemia)?
The TGI was > 100 µM.

And the TGI (KM20L2 colon)?
Its TGI is > 100 µM.

What about the TGI (K-562 leukemia) of the same compound?
The TGI was > 100 µM.

What about the TGI (M19-MEL melanoma) of the same compound?
Its TGI is > 100 µM.

And the TGI (HOP-62 NSCLC)?
Its TGI is > 100 µM.

What about the TGI (SF-295 CNS) of the same compound?
Its TGI is > 100 µM.

What about the TGI (SF-539 CNS) of the same compound?
Its TGI is > 100 µM.

What about the TGI (HCT-116 colon) of the same compound?
The TGI was > 100 µM.

What about the TGI (ACHN renal) of the same compound?
The TGI was > 100 µM.

And the TGI (HT29 colon)?
Its TGI is > 100 µM.

What about the TGI (CAKI-1 renal) of the same compound?
The TGI was > 100 µM.

What about the TGI (UACC-257 melanoma) of the same compound?
Its TGI is > 100 µM.

What about the TGI (HL-60(TB) leukemia) of the same compound?
Its TGI is > 100 µM.

And the TGI (IGROV1 ovarian)?
The TGI was > 100 µM.

What about the TGI (NCI-H23 lung) of the same compound?
The TGI was > 100 µM.

And the TGI (CCRF-CEM leukemia)?
Its TGI is > 100 µM.

What about the TGI (SNB-78 CNS) of the same compound?
The TGI was > 100 µM.

What about the TGI (SNB-19 CNS) of the same compound?
Its TGI is > 100 µM.

What about the TGI (786-0 renal) of the same compound?
Its TGI is > 100 µM.

What about the TGI (DMS 273 small cell lung) of the same compound?
The TGI was > 100 µM.

And the TGI (RXF-631 renal)?
Its TGI is > 100 µM.

And the TGI (U251 CNS)?
The TGI was > 100 µM.

What about the TGI (A498 renal) of the same compound?
The TGI was > 100 µM.

What about the TGI (SK-MEL-28 melanoma) of the same compound?
Its TGI is > 100 µM.

And the TGI (MOLT-4 leukemia)?
The TGI was > 100 µM.

What about the TGI (RPMI-8226 leukemia) of the same compound?
Its TGI is > 100 µM.

What about the TGI (OVCAR-8 ovarian) of the same compound?
The TGI was > 100 µM.

What about the TGI (HOP-18 NSCLC) of the same compound?
Its TGI is > 100 µM.

And the TGI (SW-620 colon)?
The TGI was > 100 µM.

And the TGI (M14 melanoma)?
The TGI was > 100 µM.

What about the TGI (KM12 colon) of the same compound?
Its TGI is > 100 µM.

What about the TGI (SK-OV-3 ovarian) of the same compound?
The TGI was > 100 µM.

And the TGI (DLD-1 colon)?
Its TGI is > 100 µM.

What about the TGI (LXFL 529 NSCLC) of the same compound?
Its TGI is > 100 µM.

What about the TGI (NCI-H460 lung) of the same compound?
Its TGI is > 100 µM.

What about the TGI (DMS 114 small cell lung) of the same compound?
The TGI was > 100 µM.

What about the TGI (HCC-2998 colon) of the same compound?
Its TGI is > 100 µM.

And the TGI (SN12C renal)?
The TGI was > 100 µM.

What about the TGI (OVCAR-3 ovarian) of the same compound?
The TGI was > 100 µM.

And the TGI (UACC-62 melanoma)?
The TGI was > 100 µM.

And the TGI (HOP-92 NSCLC)?
The TGI was > 100 µM.

And the TGI (SNB-75 CNS)?
The TGI was > 100 µM.

And the TGI (COLO 205 colon)?
The TGI was > 100 µM.

And the TGI (XF 498 CNS)?
Its TGI is > 100 µM.

What about the TGI (UO-31 renal) of the same compound?
The TGI was > 100 µM.

What about the TGI (SK-MEL-2 melanoma) of the same compound?
Its TGI is > 100 µM.

What about the TGI (A549 NSCLC) of the same compound?
The TGI was > 100 µM.

And the TGI (RXF 393 renal)?
The TGI was > 100 µM.
